Reference: ChEMBL document CHEMBL3045022, “The discovery of potential cyclin A/CDK2 inhibitors: a combination of 3D QSAR pharmacophore modeling, virtual screening, and molecular docking studies” (Med Chem Res, 2013)
pIC50: −log10 of the molar value.

target: Cyclin-dependent kinase 2/cyclin A (Homo sapiens, UniProt P24941); test: Inhibition of CDK2/cyclinA (unknown origin); format: protein-complex assay

pIC50 | SMILES
5.08 | Nc1nc(N)c([N+](=O)[O-])c(OCC2CCCCC2)n1
6.21 | Nc1nc(Nc2ccc(C(=O)O)cc2)nc(OCC2CCCCC2)c1C=O
5.74 | COc1ccc(Nc2nc(N)c(C=O)c(OC(C)C)n2)cc1
4.62 | N#CCc1ccc(Nc2nc(N)cc(OCC3CCCCC3)n2)cc1
4.10 | COc1nc(N)nc(N)c1N=O
7.72 | O=Nc1cnc(Nc2ccc(S(=O)(=O)Nc3nccs3)cc2)nc1OCC1CCCCC1
7.59 | CC(C)Oc1nc(Nc2ccc(S(N)(=O)=O)cc2)nc(N)c1C=O
7.47 | NC(=O)c1ccc(Nc2ncc(N=O)c(OCC3CCCCC3)n2)cc1
7.35 | O=Nc1cnc(Nc2cccc(CO)c2)nc1OCC1CCCCC1
6.93 | Nc1nc(Nc2ccc(S(N)(=O)=O)cc2)nc(OCC2CCCCC2)c1/C=N/O

More lines, now with the values behind:

SMILES | pIC50
Nc1nc(Nc2ccc(C(=O)O)cc2)nc(OCC2CCCCC2)c1N=O | 6.96
COc1cccc(Nc2ncc(N=O)c(OCC3CCCCC3)n2)c1 | 6.47
O=Nc1cnc(Nc2cccc(Br)c2)nc1OCC1CCCCC1 | 6.30
CCOc1nc(Nc2ccc(OC)cc2)nc(N)c1C=O | 5.72
Brc1cccc(Nc2nccc(OCC3CCCCC3)n2)c1 | 4.59
Nc1nc(N)c(-c2ccco2)c(OCC2CCCCC2)n1 | 4.25
COc1ccc(Nc2nc(N)c(/C=N/O)c(OCC3CCCCC3)n2)cc1 | 5.08
Nc1nc(N)c(-c2cccs2)c(OCC2CCCCC2)n1 | 4.26
N#Cc1c(N)nc(N)nc1OCC1CCCCC1 | 4.21
O=Nc1cnc(Nc2ccc(S(=O)(=O)NCC3CCCO3)cc2)nc1OCC1CCCCC1 (stereo not drawn) | 8.09
CCOc1nc(Nc2ccc(S(N)(=O)=O)cc2)nc(N)c1C=O | 7.31
CCN(CC)S(=O)(=O)c1ccc(Nc2ncc(N=O)c(OCC3CCCCC3)n2)cc1 | 7.07
CC[C@@H](C)Oc1nc(Nc2ccc(S(N)(=O)=O)cc2)ncc1C=O | 7.88
N#CCc1cccc(Nc2nc(N)c(N=O)c(OCC3CCCCC3)n2)c1 | 7.48
Nc1nc(Nc2ccc(S(N)(=O)=O)cc2)nc(OCC2CCCCC2)c1C=O | 7.31
CCOc1nc(Nc2ccc(S(N)(=O)=O)cc2)nc(N)c1N=O | 7.03
CCN(CC)C(=O)c1ccc(Nc2nc(N)c(N=O)c(OCC3CCCCC3)n2)cc1 | 6.70
CSc1cccc(Nc2nc(N)c(N=O)c(OCC3CCCCC3)n2)c1 | 6.40
